From patent publication US20020137929A1, “1 - (3-heterocyclylphenyl) isothiourea, -isourea, -guanidine and -amidine herbicidal agents” (Intellectual Property Department, BASF Aktiengesellschaft, priority 1998, published 2002)

Legend:
[1] = tested on: SAGPY (Arrowhead (Pygmaea)); experiment: Preemergence weed control under flooded paddy conditions; assay type: in vivo, Sagittaria pygmaea; conditions: rated 3-4 weeks after treatment
Procedure, shortened: (§1)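 Silt loam, seeds in top 0.5 cm; flood held 1.5-3 cm; test cpd as acetone/water 50/50 into flood water, ~0.0313-0.500 kg/ha a.i.; greenhouse 3-4 wk; visual 0-9 score vs control.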

[2] = tested on: GLXMAW (Soybean, Williams); experiment: Postemergence herbicidal evaluation; assay type: in vivo, Glycine max, (L.) Merr. cv Williams; conditions: postemergence
Procedure, shortened: (§2)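 Young plants, roughly two weeks from seeding, receive the active ingredient as a sprayed dispersion (acetone/water 50/50, 0.5% TWEEN 20) at 40 psi. Doses span about 0.0156 to 0.500 kg/ha. A visual score from 0 to 9 compares treated with control plants four to five weeks on.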

ORYSAT (Rice, Tebonnet) = experiment: Postemergence herbicidal evaluation; assay type: in vivo, Oryza sativa, (L.) Tebonnet; conditions: postemergence
Procedure, shortened: as §2

MOOVA (Monochoria) = experiment: Preemergence weed control under flooded paddy conditions; assay type: in vivo, Monochoria vaginalis; conditions: rated 3-4 weeks after treatment
Procedure, shortened: as §1

ECHCG (Barnyardgrass) = experiment: Postemergence herbicidal evaluation; assay type: in vivo, Echinochloa crus-galli; conditions: postemergence
Procedure, shortened: as §2

ABUTH (Velvetleaf) [3] = experiment: Preemergence herbicidal evaluation; assay type: in vivo, Abutilon theophrasti; conditions: rated 4-5 weeks after treatment, rating scale 0-9
Procedure, shortened: (§3)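 Test compound, dissolved in aqueous acetone, was sprayed over planted soil cups at an equivalent of about 0.0156 to 0.500 kg/ha; seeds had been mixed with potting soil. Greenhouse growth followed, with visual 0-9 scoring of injury at four to five weeks.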

[4] = tested on: TRZAWR (Wheat, Winter, cv Riband); experiment: Postemergence herbicidal evaluation; assay type: in vivo, Triticum aestivum; conditions: postemergence
Procedure, shortened: as §2

SETVI (Foxtail, Green) [5] = experiment: Postemergence herbicidal evaluation; assay type: in vivo, Setaria viridis; conditions: postemergence
Procedure, shortened: as §2

AMBEL (Ragweed, Common) = experiment: Postemergence herbicidal evaluation; assay type: in vivo, Ambrosia artemisifolia; conditions: postemergence
Procedure, shortened: as §2

SETVI (Foxtail, Green) [6] = experiment: Preemergence herbicidal evaluation; assay type: in vivo, Setaria viridis; conditions: rated 4-5 weeks after treatment, rating scale 0-9
Procedure, shortened: as §3

CASOB (Sicklepod) = experiment: Preemergence herbicidal evaluation; assay type: in vivo, Cassia obtusifolia; conditions: rated 4-5 weeks after treatment, rating scale 0-9
Procedure, shortened: as §3

ABUTH (Velvetleaf) [7] = experiment: Postemergence herbicidal evaluation; assay type: in vivo, Abutilon theophrasti; conditions: postemergence
Procedure, shortened: as §2

Cn1c(C(F)(F)F)cc(=O)n(-c2cc(N=C3SCC(=O)N3Cc3ccccc3Cl)c(Cl)cc2F)c1=O [Compound 143]
herbicidal effect rating, SAGPY ([1]; 0.0313 kg/ha): 0.0
herbicidal effect rating, SAGPY ([1]; 0.0625 kg/ha): 0.0
herbicidal effect rating, SAGPY ([1]; 0.1250 kg/ha): 0.0
herbicidal effect rating, SAGPY ([1]; 0.2500 kg/ha): 5.0
herbicidal rating GLXMAW ([2]; rate 0.0156 kg/ha): 4.0
herbicidal rating GLXMAW ([2]; rate 0.0313 kg/ha): 4.5
herbicidal rating GLXMAW ([2]; rate 0.0625 kg/ha): 5.0
herbicidal rating ORYSAT (ORYSAT (Rice, Tebonnet); rate 0.0156 kg/ha): 1.5
herbicidal rating ORYSAT (ORYSAT (Rice, Tebonnet); rate 0.0313 kg/ha): 1.5
herbicidal rating ORYSAT (ORYSAT (Rice, Tebonnet); rate 0.0625 kg/ha): 2.0
herbicidal effect rating, MOOVA (MOOVA (Monochoria); 0.0313 kg/ha): 5.0
herbicidal effect rating, MOOVA (MOOVA (Monochoria); 0.0625 kg/ha): 6.0
herbicidal effect rating, MOOVA (MOOVA (Monochoria); 0.1250 kg/ha): 6.0
herbicidal effect rating, MOOVA (MOOVA (Monochoria); 0.2500 kg/ha): 6.0
herbicidal rating ECHCG (ECHCG (Barnyardgrass); rate 0.0156 kg/ha): 1.0
herbicidal rating ECHCG (ECHCG (Barnyardgrass); rate 0.0313 kg/ha): 2.0
herbicidal rating ECHCG (ECHCG (Barnyardgrass); rate 0.0625 kg/ha): 1.0
Preemergence herbicidal rating ABUTH (ABUTH (Velvetleaf) [3]; rate 0.0313 kg/ha): 1.0
Preemergence herbicidal rating ABUTH (ABUTH (Velvetleaf) [3]; rate 0.0625 kg/ha): 1.0
Preemergence herbicidal rating ABUTH (ABUTH (Velvetleaf) [3]; rate 0.1250 kg/ha): 6.0
Preemergence herbicidal rating ABUTH (ABUTH (Velvetleaf) [3]; rate 0.2500 kg/ha): 9.0
herbicidal rating TRZAWR ([4]; rate 0.0156 kg/ha): 1.5
herbicidal rating TRZAWR ([4]; rate 0.0313 kg/ha): 2.0
herbicidal rating TRZAWR ([4]; rate 0.0625 kg/ha): 3.5
herbicidal rating SETVI (SETVI (Foxtail, Green) [5]; rate 0.0156 kg/ha): 2.0
herbicidal rating SETVI (SETVI (Foxtail, Green) [5]; rate 0.0313 kg/ha): 1.0
herbicidal rating SETVI (SETVI (Foxtail, Green) [5]; rate 0.0625 kg/ha): 3.0
herbicidal rating AMBEL (AMBEL (Ragweed, Common); rate 0.0156 kg/ha): 9.0
herbicidal rating AMBEL (AMBEL (Ragweed, Common); rate 0.0313 kg/ha): 9.0
herbicidal rating AMBEL (AMBEL (Ragweed, Common); rate 0.0625 kg/ha): 9.0
Preemergence herbicidal rating SETVI (SETVI (Foxtail, Green) [6]; rate 0.0313 kg/ha): 0.0
Preemergence herbicidal rating SETVI (SETVI (Foxtail, Green) [6]; rate 0.0625 kg/ha): 0.0
Preemergence herbicidal rating SETVI (SETVI (Foxtail, Green) [6]; rate 0.1250 kg/ha): 3.0
Preemergence herbicidal rating SETVI (SETVI (Foxtail, Green) [6]; rate 0.2500 kg/ha): 3.0
Preemergence herbicidal rating CASOB (CASOB (Sicklepod); rate 0.0313 kg/ha): 0.0
Preemergence herbicidal rating CASOB (CASOB (Sicklepod); rate 0.0625 kg/ha): 0.0
Preemergence herbicidal rating CASOB (CASOB (Sicklepod); rate 0.1250 kg/ha): 0.0
Preemergence herbicidal rating CASOB (CASOB (Sicklepod); rate 0.2500 kg/ha): 1.0
herbicidal rating ABUTH (ABUTH (Velvetleaf) [7]; rate 0.0156 kg/ha): 9.0
herbicidal rating ABUTH (ABUTH (Velvetleaf) [7]; rate 0.0313 kg/ha): 9.0
herbicidal rating ABUTH (ABUTH (Velvetleaf) [7]; rate 0.0625 kg/ha): 9.0
